{
  "source": "patent US20230078718A1",
  "about": "“UNSATURATED FATTY ACID-CONJUGATED CP2C-TARGETING PEPTIDE-BASED ANTICANCER AGENT” (Industry-University Cooperation Foundation Hanyang …, priority 2020, published 2023)",
  "key": {"Hep3B xenograft": {"system": "Hep3B xenograft", "assay": "Tumor growth inhibition in Hep3B xenograft mouse model", "assay_type": "in vivo", "procedure": "In order to confirm the anticancer efficacy of ACP52CG and ACP52CK in vivo, following groups of treatment were performed […]; a negative control (saline; mock), a positive control (sorafenib, 10 mg/kg and ACP52C, 2 mg/kg), and an experimental group (ACP52CK, 5 mg/kg and ACP52CG, 5 mg/kg)."}, "[1]": {"system": "breast cancer (MDA-MB-231) and liver cancer (HepG2) cell lines"}, "[2]": {"system": "normal human mesenchymal stem cells (hMSCs)", "procedure": "(§1) As an example thereof, FIG. 10 illustrates cell numbers at 48 hours and 96 hours after treatment of each drug at different concentrations in a breast cancer cell line (MDA-MB-231), normal human mesenchymal stem cells (hMSCs, LT18), and a non-tumorigenic lung cell line (BEAS-2B), cell growth inhibition graphs to get GI50 values, and representative photographs of cells.\n(§2) First, to test the effect of DHA itself, a breast cancer cell line (MDA-MB-231), liver cancer cell lines (Hep3B and HepG2), a normal hMSC cell line ([…]), and a non-tumorigenic lung cell line (BEAS-2B) were treated with DHA over concentrations, and then cell growth was analyzed by MTT assay."}, "[3]": {"system": "non-tumorigenic lung cell line (BEAS-2B)", "procedure": "as §1, §2"}, "[4]": {"system": "breast cancer cell line (MDA-MB-231), liver cancer cell lines (Hep3B and HepG2)", "assay": "Cell growth by MTT assay after DHA treatment of cancer cell lines", "assay_type": "cell-based", "method": "First, to test the effect of DHA itself, a breast cancer cell line (MDA-MB-231), liver cancer cell lines (Hep3B and HepG2), a normal hMSC cell line (LA211), and a non-tumorigenic lung cell line (BEAS-2B) were treated with DHA over concentrations, and then cell growth was analyzed by MTT assay."}, "[5]": {"system": "CP2c transcription factor complexes [CP2c homotetramer and the CBP (CP2c, CP2b, and PIAS1) heterohexamer]", "assay": "Interference with CP2c transcription factor complex formation and DNA binding", "assay_type": "biochemical", "excerpt": "Since PEP #5-2 cannot enter cells by itself, in order to improve cell permeability of Pep #5-2, a cell-penetrating peptide (CPP), an internalizing RGD (iRGD) which is a peptide consisting of 9 amino acids (9aa) ‘Cys-Arg-Gly-Asp-Lys-Gly-Pro-Asp-Cys (CRGDKGPDC, SEQ ID NO: 3)’, was bound to the CP2c-targeting peptide and named it as ACP52C (FIG. 7)."}, "[6]": {"assay": "Live imaging of Cy5-labeled peptide after tail vein injection in Hep3B xenograft mouse", "details": "in vivo", "excerpt": "(§3) The following methods were used to confirm the stability and safety of the cancer cell-specific cell death-inducing ACP52C. […] It is presumed that ACP52C is subjected to renal secretion rather than degradation by proteases, since ACP52C (a peptide consisted of 15 amino acids) is short enough to be easily secreted from the kidneys."}, "[7]": {"assay": "Stability in serum (in vitro) by HPLC", "assay_type": "in vitro ADME", "excerpt": "as §3"}, "human erythrocytes": {"system": "human erythrocytes", "assay": "Hemolysis of erythrocytes", "assay_type": "cell-based", "details": "pH 7.4, 8 hours", "excerpt": "as §3"}, "MDA-MB-231 cells": {"system": "MDA-MB-231 cells", "details": "western blotting of apoptosis-related proteins, electron microscopy, Annexin V/PI"}, "[8]": {"assay": "Half-life in blood (in vivo) by HPLC", "details": "read-out: time to degradation to half in blood (in vivo) (converted)", "excerpt": "as §3"}, "[9]": {"system": "MCF10A, a non-tumorigenetic breast epithelial cell line", "details": "FACS"}, "MDA-MB-231 cell line": {"system": "MDA-MB-231 cell line", "details": "MDA-MB-231, FACS"}, "MCF10A cells": {"system": "MCF10A cells", "details": "electron microscopy"}, "MCF7 cells": {"system": "MCF7 cells", "details": "ACP52C-treated MCF7 cells"}, "[10]": {"system": "various cancer cell lines", "assay": "Cell growth inhibition in various cancer cell lines (MTT assay, GI50)", "assay_type": "cell-based"}, "[11]": {"system": "MDA-MB-231 and HepG2 cell lines"}, "[12]": {"details": "tail vein, 6 times at 3-day intervals, sorafenib 10 mg/kg, DHA-ACP52 1.65 mg/kg, DHA-ACP52C 2.79 mg/kg"}},
  "note": "Bridge positions count the residues as written; N and C are the ends. Peptide text beside a SMILES is read from it. * marks the point of attachment. X1 = CC/C=C\\C/C=C\\C/C=C\\C/C=C\\C/C=C\\C/C=C\\CCC(=O)*",
  "data": [
    {"compound": "CC/C=C\\C/C=C\\C/C=C\\C/C=C\\C/C=C\\C/C=C\\CCC(=O)NCC(=O)NCC(=O)N[C@@H](CC(N)=O)C(=O)N[C@@H](Cc1ccc(O)cc1)C(=O)N1CCC[C@H]1C(=O)N[C@@H](CCC(N)=O)C(=O)N[C@@H](CCCNC(=N)N)C(=O)N1CCC[C@H]1C(N)=O", "note": "[DHA-ACP52] (X1-GGNYPQRP-NH2)", "values": [
      {"measurement": "tumor size, shape, and weight in sacrificed mice", "setting": "Hep3B xenograft; [12]", "result": "did not exhibit any effect"},
      {"measurement": "GI50", "setting": "[1]", "result": "5.7 to 6.95", "unit": "µM"},
      {"measurement": "toxicity", "setting": "[2]", "result": "none of DHA-ACP52 and DHA-ACP52C showed toxicity"},
      {"measurement": "toxicity", "setting": "[3]", "result": "none of DHA-ACP52 and DHA-ACP52C showed toxicity"}
    ]},
    {"compound": "CC/C=C\\C/C=C\\C/C=C\\C/C=C\\C/C=C\\C/C=C\\CCC(=O)O", "note": "[DHA, all-cis-docosa-4,7,10,13,16,19-hexa-enoic acid, reference compound]", "values": [
      {"measurement": "anticancer effect at a concentration of 10 μM or less", "setting": "[4]; Hep3B and MDA-MB-231 cell lines", "result": "no anticancer effect was exhibited"},
      {"measurement": "concentration showing cytotoxicity", "setting": "[4]; cancer cells, MTT", "result": "≥ 20", "unit": "µM"},
      {"measurement": "cytotoxicity", "setting": "[2]", "result": "showed no cytotoxicity on the normal cell line"},
      {"measurement": "concentration showing cytotoxicity", "setting": "[3]; human", "result": "≥ 20", "unit": "µM"}
    ]},
    {"compound": "CNC(=O)c1cc(Oc2ccc(NC(=O)Nc3ccc(Cl)c(C(F)(F)F)c3)cc2)ccn1", "note": "[sorafenib, reference compound]", "values": [
      {"measurement": "tumor size measured once every 3 days during the experiment", "setting": "Hep3B xenograft; [12]", "result": "inhibited cancer growth more effectively than the group treated with mock or DHA-ACP52"},
      {"measurement": "tumor size, shape, and weight in sacrificed mice", "setting": "Hep3B xenograft; [12]", "result": "significant anticancer efficacy compared to the mock"}
    ]},
    {"compound": "NYPQRP(Asn-Try-Pro-Gln-Arg-Pro, SEQ ID NO: 2) (peptide for targeting CP2c) [PEP #5-2, CP2c-targeting peptide of 6 amino acids at the carboxyl terminus of PEP #5]", "values": [
      {"measurement": "interference with DNA binding of the CP2c transcription factor complexes by suppressing complex formation", "setting": "[5]", "result": "showed the same effect as PEP #5"}
    ]},
    {"compound": "PEP #5: peptide binding transcription factor CP2c, identified by the phage display method (YPQR; peptide for targeting CP2c)", "values": [
      {"measurement": "interference with DNA binding of the CP2c transcription factor complexes by suppressing complex formation", "setting": "[5]", "result": "interferes with DNA binding of the CP2c transcription factor complexes"}
    ]},
    {"compound": "N=C(N)NCCC[C@@H]1NC(=O)[C@@H](NC(=O)[C@@H]2CCCN2C(=O)[C@H](CCCNC(=N)N)NC(=O)[C@H](CCC(N)=O)NC(=O)[C@@H]2CCCN2C(=O)[C@H](Cc2ccc(O)cc2)NC(=O)[C@@H](N)CC(N)=O)CSSC[C@@H](C(N)=O)NC(=O)[C@H](CC(=O)O)NC(=O)[C@@H]2CCCN2C(=O)CNC(=O)[C@H](CCCCN)NC(=O)[C@H](CC(=O)O)NC(=O)CNC1=O", "note": "[ACP52C] (H-NYPQRPCRGDKGPDC-NH2; disulfide 7-15; N-terminus assumed)", "values": [
      {"measurement": "half-life", "setting": "[6]", "result": "~477", "unit": "min"},
      {"measurement": "time stable in serum (in vitro)", "setting": "[7]", "result": "up to 24 hours"},
      {"measurement": "hemolysis", "setting": "human erythrocytes", "result": "Hemolysis was not appeared"},
      {"measurement": "cell death induction via apoptosis", "setting": "MDA-MB-231 cells", "result": "induced cell death via apoptosis"},
      {"measurement": "half-life", "setting": "[8]", "result": 120, "unit": "min"},
      {"measurement": "cell cycle progression", "setting": "[9]", "result": "exerted no effect on cell cycle progression"},
      {"measurement": "cell cycle changes", "setting": "MDA-MB-231 cell line", "result": "induced cell cycle arrest, increasing cells at G2/M and subG1 phases"},
      {"measurement": "anticancer effect (summary)", "setting": "Hep3B xenograft; injected by 3-day intervals", "result": "exhibited a significant anticancer effect when injected by 3-day intervals"},
      {"measurement": "anticancer effect (summary)", "setting": "Hep3B xenograft; injected by 5-day intervals", "result": "did not exhibit a significant anticancer effect when injected by 5-day intervals"},
      {"measurement": "characteristics of apoptosis (condensation of cell nuclei)", "setting": "MCF10A cells", "result": "not at all in MCF10A cells"},
      {"measurement": "GI50", "setting": "[1]", "result": 2, "unit": "µM"},
      {"measurement": "expression of Cdc2 (CDK1) and Cyclin B1", "setting": "MCF7 cells", "result": "expression of Cdc2 (CDK1) and Cyclin B1 was decreased"},
      {"measurement": "effective concentration for cancer cell-specific cell death", "setting": "[10]", "result": "≤ 10", "unit": "µM"},
      {"measurement": "cancer cell-specific growth suppression and cell death", "setting": "[10]; various cancer cell lines", "result": "cancer cell-specific growth suppression and cell death efficacies"},
      {"measurement": "colony formation ability when CP2c is overexpressed", "setting": "[11]; CP2c overexpression", "result": "the colony formation ability is suppressed more efficiently"},
      {"measurement": "colony formation ability", "setting": "[11]; MDA-MB-231 and HepG2", "result": "efficiently suppressed the colony formation ability"}
    ]}
  ]
}
